Test results from patent US10131652B2, “Pyrimidinyloxy benzene derivatives as herbicides” (E. I. DU PONT DE NEMOURS AND COMPANY, priority 2014, dated 2018).
Read-outs that look alike come from different tables or passages of the source.

Experiments:
Format in all cases: in vivo
[1] = test system: small-flower umbrella sedge (Cyperus difformis); assay: Test D flooded paddy test plant response; conditions: Flood (flooded paddy test), visual rating on scale 0 to 100 (0 no effect, 100 complete control), 13 to 15 days
Outline: (§1)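 Plants at 2-leaf stage in pots flooded 3 cm above soil; compounds applied directly into paddy water, depth kept throughout. After 13-15 days in greenhouse, visual rating against controls on 0-100 scale (100 = complete control).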

[2] = test system: ducksalad (Heteranthera limosa); assay: Test D flooded paddy test plant response; conditions: Flood (flooded paddy test), visual rating on scale 0 to 100 (0 no effect, 100 complete control), 13 to 15 days
Outline: as §1

rice (Oryza sativa) = assay: Test D flooded paddy test plant response; conditions: Flood (flooded paddy test), visual rating on scale 0 to 100 (0 no effect, 100 complete control), 13 to 15 days
Outline: as §1

[3] = test system: barnyardgrass (Echinochloa crus-galli); assay: Test D flooded paddy test plant response; conditions: Flood (flooded paddy test), visual rating on scale 0 to 100 (0 no effect, 100 complete control), 13 to 15 days
Outline: as §1

Horseweed = assay: Test F postemergence plant response; conditions: scale 0 to 100
[4] = test system: large (Lg) crabgrass (Digitaria sanguinalis); assay: Test F pre-/postemergence plant response; conditions: Digitaria sanguinalis, pre-emergence, scale 0 to 100, read-out: Plant response rating, Crabgrass, Large
Outline: (§2)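 Seeds were sown in silt loam soil and sprayed preemergence; separately, plants at the 1- to 4-leaf stage (2 to 18 cm) received postemergence sprays. Test chemicals were in a non-phytotoxic solvent mixture with surfactant. After 14 to 21 days in a greenhouse, injury was visually rated 0 (no effect) to 100 (complete control) against untreated controls.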

[5] = test system: arrowleaf sida (Sida rhombifolia); assay: Test F pre-/postemergence plant response; conditions: scale 0 to 100; for pest or weed control at 31 g/ha / pest or weed control at 62 g/ha: Sida rhombifolia, read-out: Plant response rating, Arrowleaf Sida
Outline: as §2

[6] = test system: yellow nutsedge (Cyperus esculentus); assay: Test F pre-/postemergence plant response; conditions: Cyperus, pre-emergence, scale 0 to 100, read-out: Plant response rating, Nutsedge, Yellow
Outline: as §2

[7] = test system: hairy beggarticks (Bidens pilosa); assay: Test F pre-/postemergence plant response; conditions: scale 0 to 100; for pest or weed control at 31 g/ha / pest or weed control at 62 g/ha: Bidens pilosa, read-out: Plant response rating, Beggarticks
Outline: as §2

[8] = test system: Italian ryegrass (Lolium multiflorum); assay: Test F pre-/postemergence plant response; conditions: scale 0 to 100; for pest or weed control at 31 g/ha / pest or weed control at 62 g/ha: Lolium multiflorum, read-out: Plant response rating, Ryegrass, Italian; for pest or weed control at 31 g/ha: 31 g ai/ha
Outline: as §2

[9] = test system: surinam grass (Brachiaria decumbens); assay: Test F pre-/postemergence plant response; conditions: Urochloa decumbens, pre-emergence, scale 0 to 100, read-out: Plant response rating, Surinam Grass
Outline: as §2

[10] = test system: ragweed (common ragweed, Ambrosia elatior); assay: Test F pre-/postemergence plant response; conditions: scale 0 to 100; for pest or weed control at 31 g/ha / pest or weed control at 62 g/ha: Ambrosia artemisiifolia, read-out: Plant response rating, Ragweed
Outline: as §2

[11] = test system: nightshade (eastern black nightshade, Solanum ptycanthum); assay: Test F pre-/postemergence plant response; conditions: Solanum, pre-emergence, scale 0 to 100, read-out: Plant response rating, Nightshade
Outline: as §2

kochia (Kochia scoparia) = assay: Test F pre-/postemergence plant response; conditions: scale 0 to 100; for pest or weed control at 31 g/ha / pest or weed control at 62 g/ha: Bassia scoparia, read-out: Plant response rating, Kochia; for pest or weed control at 31 g/ha: 31 g ai/ha
Outline: as §2

[12] = test system: velvetleaf (Abutilon theophrasti); assay: Test F pre-/postemergence plant response; conditions: Abutilon theophrasti, pre-emergence, scale 0 to 100, read-out: Plant response rating, Velvetleaf
Outline: as §2

[13] = test system: barnyardgrass (Echinochloa crus-galli); assay: Test F pre-/postemergence plant response; conditions: scale 0 to 100; for pest or weed control at 31 g/ha / pest or weed control at 62 g/ha: Echinochloa crus-galli, read-out: Plant response rating, Barnyardgrass
Outline: as §2

[14] = post-emergence, 31 g ai/ha Postemergence
[15] = post-emergence, 62 g ai/ha Postemergence
[16] = pre-emergence, 31 g ai/ha Preemergence
[17] = pre-emergence, 62 g ai/ha Preemergence
[18] = post-emergence, 62 g ai/ha, Postemergence

Fc1cccc(Oc2ncc(Cl)cn2)c1-c1cc(C(F)F)on1 [Compound 55, 5-chloro-2-[2-[5-(difluoromethyl)-3-isoxazolyl]-3-fluorophenoxy]pyrimidine]
Plant response rating, Sedge, Umbrella ([1]; 31 g ai/ha): 75
Plant response rating, Sedge, Umbrella ([1]; 62 g ai/ha): 75
Plant response rating, Sedge, Umbrella ([1]; 125 g ai/ha): 85
Plant response rating, Sedge, Umbrella ([1]; 250 g ai/ha): 100
Plant response rating, Ducksalad ([2]; 31 g ai/ha): 75
Plant response rating, Ducksalad ([2]; 62 g ai/ha): 80
Plant response rating, Ducksalad ([2]; 125 g ai/ha): 85
Plant response rating, Ducksalad ([2]; 250 g ai/ha): 90
Plant response rating, Rice (rice (Oryza sativa); 31 g ai/ha): 0
Plant response rating, Rice (rice (Oryza sativa); 62 g ai/ha): 0
Plant response rating, Rice (rice (Oryza sativa); 125 g ai/ha): 0
Plant response rating, Rice (rice (Oryza sativa); 250 g ai/ha): 0
Plant response rating, Barnyardgrass ([3]; 31 g ai/ha): 0
Plant response rating, Barnyardgrass ([3]; 62 g ai/ha): 0
Plant response rating, Barnyardgrass ([3]; 125 g ai/ha): 10
Plant response rating, Barnyardgrass ([3]; 250 g ai/ha): 30
Plant response rating, Horseweed (Horseweed; 31 g ai/ha Postemergence): 15
Plant response rating, Horseweed (Horseweed; 62 g ai/ha Postemergence): 20
pest or weed control at 31 g/ha ([4]; 31 g ai/ha Preemergence): 98%
pest or weed control at 62 g/ha ([4]; 62 g ai/ha Preemergence): 100%
pest or weed control at 31 g/ha [5, 14]: 95%
pest or weed control at 62 g/ha [5, 15]: 100%
pest or weed control at 31 g/ha [5, 16]: 98%
pest or weed control at 62 g/ha [5, 17]: 100%
pest or weed control at 31 g/ha ([6]; 31 g ai/ha Preemergence): 0%
pest or weed control at 62 g/ha ([6]; Preemergence): 0%
pest or weed control at 31 g/ha [7, 14]: 55%
pest or weed control at 62 g/ha [7, 15]: 70%
pest or weed control at 31 g/ha [7, 16]: 0%
pest or weed control at 62 g/ha [7, 17]: 0%
pest or weed control at 31 g/ha ([8]; post-emergence, Postemergence): 0%
pest or weed control at 62 g/ha [8, 18]: 10%
pest or weed control at 31 g/ha ([8]; pre-emergence, Preemergence): 0%
pest or weed control at 62 g/ha ([8]; pre-emergence, Preemergence): 30%
pest or weed control at 31 g/ha ([9]; 31 g ai/ha Preemergence): 0%
pest or weed control at 62 g/ha ([9]; Preemergence): 10%
pest or weed control at 31 g/ha [10, 14]: 55%
pest or weed control at 62 g/ha [10, 15]: 55%
pest or weed control at 31 g/ha [10, 16]: 40%
pest or weed control at 62 g/ha ([10]; pre-emergence, Preemergence): 50%
pest or weed control at 31 g/ha ([11]; 31 g ai/ha Preemergence): 98%
pest or weed control at 62 g/ha ([11]; Preemergence): 98%
pest or weed control at 31 g/ha (kochia (Kochia scoparia); post-emergence, Postemergence): 95%
pest or weed control at 62 g/ha (kochia (Kochia scoparia); [18]): 98%
pest or weed control at 31 g/ha (kochia (Kochia scoparia); pre-emergence, Preemergence): 100%
pest or weed control at 62 g/ha (kochia (Kochia scoparia); pre-emergence, Preemergence): 100%
pest or weed control at 31 g/ha ([12]; 31 g ai/ha Preemergence): 100%
pest or weed control at 62 g/ha ([12]; Preemergence): 100%
pest or weed control at 31 g/ha [13, 14]: 50%
pest or weed control at 62 g/ha [13, 15]: 35%
pest or weed control at 31 g/ha [13, 16]: 10%
pest or weed control at 62 g/ha [13, 17]: 85%

Fc1ccc(Oc2ncc(Cl)cn2)c(-c2cc(C(F)(Cl)Cl)on2)c1 [Compound 221]
Plant response rating, Sedge, Umbrella ([1]; 62 g ai/ha): 80
Plant response rating, Sedge, Umbrella ([1]; 250 g ai/ha): 95
Plant response rating, Ducksalad ([2]; 62 g ai/ha): 80
Plant response rating, Ducksalad ([2]; 250 g ai/ha): 90
Plant response rating, Rice (rice (Oryza sativa); 62 g ai/ha): 15
Plant response rating, Rice (rice (Oryza sativa); 250 g ai/ha): 40
Plant response rating, Barnyardgrass ([3]; 62 g ai/ha): 40
Plant response rating, Barnyardgrass ([3]; 250 g ai/ha): 60
Plant response rating, Horseweed (Horseweed; 16 g ai/ha Postemergence): 0
Plant response rating, Horseweed (Horseweed; 31 g ai/ha Postemergence): 5
Plant response rating, Horseweed (Horseweed; 62 g ai/ha Postemergence): 10
Plant response rating, Horseweed (Horseweed; 125 g ai/ha Postemergence): 30
Plant response rating, Arrowleaf Sida ([5]; 16 g ai/ha Postemergence): 80
Plant response rating, Arrowleaf Sida ([5]; 31 g ai/ha Postemergence): 90
Plant response rating, Arrowleaf Sida ([5]; 62 g ai/ha Postemergence): 98
Plant response rating, Arrowleaf Sida ([5]; 125 g ai/ha Postemergence): 98
Plant response rating, Beggarticks ([7]; 16 g ai/ha Postemergence): 50
Plant response rating, Beggarticks ([7]; 31 g ai/ha Postemergence): 60
Plant response rating, Beggarticks ([7]; 62 g ai/ha Postemergence): 70
Plant response rating, Beggarticks ([7]; 125 g ai/ha Postemergence): 70
Plant response rating, Ryegrass, Italian ([8]; 16 g ai/ha Postemergence): 0
Plant response rating, Ryegrass, Italian ([8]; 31 g ai/ha Postemergence): 0
Plant response rating, Ryegrass, Italian ([8]; 62 g ai/ha Postemergence): 0
Plant response rating, Ryegrass, Italian ([8]; 125 g ai/ha Postemergence): 5
Plant response rating, Ragweed ([10]; 16 g ai/ha Postemergence): 50
Plant response rating, Ragweed ([10]; 31 g ai/ha Postemergence): 60
Plant response rating, Ragweed ([10]; 62 g ai/ha Postemergence): 70
Plant response rating, Ragweed ([10]; 125 g ai/ha Postemergence): 80
Plant response rating, Kochia (kochia (Kochia scoparia); 16 g ai/ha Postemergence): 95
Plant response rating, Kochia (kochia (Kochia scoparia); 31 g ai/ha Postemergence): 98
Plant response rating, Kochia (kochia (Kochia scoparia); 62 g ai/ha Postemergence): 100
Plant response rating, Kochia (kochia (Kochia scoparia); 125 g ai/ha Postemergence): 100
Plant response rating, Barnyardgrass ([13]; 16 g ai/ha Postemergence): 15
Plant response rating, Barnyardgrass ([13]; 31 g ai/ha Postemergence): 25
Plant response rating, Barnyardgrass ([13]; 62 g ai/ha Postemergence): 30
Plant response rating, Barnyardgrass ([13]; 125 g ai/ha Postemergence): 70
